The term Ki denotes a dissociation constant, usually derived from enzyme kinetics or from competition with a known ligand. The term IC50 denotes the midpoint of a concentration-inhibition curve.

The source of these data is ChEMBL document CHEMBL4706548, “3-Methylthiazolo[3,2-a]benzimidazole-benzenesulfonamide conjugates as novel carbonic anhydrase inhibitors endowed with anticancer activity: Design, synthesis, biological and molecular modeling studies” (Eur J Med Chem, 2020).

The target of one assay is Carbonic anhydrase 1 (Homo sapiens, UniProt P00915). As to the kind of experiment: Inhibition of human CA1 preincubated for 15 mins prior to testing by phenol red-based stopped-flow CO2 hydration assay.
Carbonic anhydrase 1, sequence (P00915 whole entry): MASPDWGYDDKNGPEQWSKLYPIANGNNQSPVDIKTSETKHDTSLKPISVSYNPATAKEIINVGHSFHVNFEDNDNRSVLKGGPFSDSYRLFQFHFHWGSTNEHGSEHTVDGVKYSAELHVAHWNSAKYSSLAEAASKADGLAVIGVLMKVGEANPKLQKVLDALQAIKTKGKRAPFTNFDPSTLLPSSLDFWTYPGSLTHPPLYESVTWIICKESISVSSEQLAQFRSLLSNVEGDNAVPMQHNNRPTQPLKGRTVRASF
For another assay, the target named is Carbonic anhydrase 9 (Homo sapiens, UniProt Q16790). As to the kind of experiment: Inhibition of human CA9 preincubated for 15 mins prior to testing by phenol red-based stopped-flow CO2 hydration assay.
Assay [1] concerns MCF7. As to the kind of experiment: Induction of apoptosis in human MCF7 cells assessed as early apoptotic cells at […] measured after 24 hrs by Annexin V-FITC/propidium iodide staining based flow cytometry (reference value: 0.42 %). On the set-up: dose or concentration left out as unconfirmed. In kind it is functional. In general terms: In flow cytometry, cells or beads pass a laser one at a time.

Assay [2] relates to MDA-MB-231. As to the kind of experiment: Induction of apoptosis in human MDA-MB-231 cells assessed as early apoptotic cells at […] measured after 24 hrs by Annexin V-FITC/propidium iodide staining based flow cytometry (reference value: 0.56 %). The arrangement: dose or concentration left out as unconfirmed. In kind it is functional.
In assay [3] the test system is MDA-MB-231. Briefly: Induction of apoptosis in human MDA-MB-231 cells assessed as necrotic cells at […] measured after 24 hrs by Annexin V-FITC/propidium iodide staining based flow cytometry (reference value: 0.64 %). On the set-up: dose or concentration left out as unconfirmed. In kind it is functional.
Assay [4] deals with MCF7. Briefly: Antiproliferative activity against human MCF7 cells assessed as reduction in cell viability incubated for 48 hrs under chemically-induced hypoxic condition by MTT assay. The settings on record: MCF7, 48 h.
For assay [5], the system named is MDA-MB-231. As to the kind of experiment: Induction of apoptosis in human MDA-MB-231 cells assessed as late apoptotic cells at […] measured after 24 hrs by Annexin V-FITC/propidium iodide staining based flow cytometry (reference value: 0.24 %). In kind it is functional. The arrangement: dose or concentration left out as unconfirmed.
The subject of assay [6] is MDA-MB-231. As to the kind of experiment: Induction of cell cycle arrest in human MDA-MB-231 cells assessed as decrease in G0/G1 cells at IC50 concentration incubated for 24 hrs by propidium iodide staining based flow cytometry (reference value: 56.42%). In kind it is functional. On the set-up: scale not given: the % may be the effect or the level left.
Assay [7] deals with MCF7. As to the kind of experiment: Antiproliferative activity against human MCF7 cells assessed as reduction in cell viability incubated for 48 hrs under normaxic condition by MTT assay. The conditions noted are these: MCF7, 48 h. On the technique in general: Formazan colour is commonly taken as a measure of viable cells.
Assay [8] relates to MCF7. Briefly: Induction of apoptosis in human MCF7 cells assessed as late apoptotic cells at […] measured after 24 hrs by Annexin V-FITC/propidium iodide staining based flow cytometry (reference value: 0.29 %). In kind it is functional. On the set-up: dose or concentration left out as unconfirmed.
Assay [9] relates to MDA-MB-231. Briefly: Antiproliferative activity against human MDA-MB-231 cells assessed as reduction in cell viability incubated for 48 hrs under normaxic condition by MTT assay. The settings on record: MDA-MB-231, 48 h.
The subject of assay [10] is MDA-MB-231. As to the kind of experiment: Antiproliferative activity against human MDA-MB-231 cells assessed as reduction in cell viability incubated for 48 hrs under chemically-induced hypoxic condition by MTT assay. The settings on record: MDA-MB-231, 48 h.
Assay [11] deals with MCF7. Briefly: Induction of cell cycle arrest in human MCF7 cells assessed as decrease in G0/G1 cells at IC50 concentration incubated for 24 hrs by propidium iodide staining based flow cytometry (reference value: 52.63%). On the set-up: scale not given: the % may be the effect or the level left. In kind it is functional.
Assay [12] relates to MCF7. As to the kind of experiment: Induction of apoptosis in human MCF7 cells assessed as necrotic cells at […] measured after 24 hrs by Annexin V-FITC/propidium iodide staining based flow cytometry (reference value: 1.15 %). In kind it is functional. On the set-up: dose or concentration left out as unconfirmed.

Where only a bound is given, the exact number is not on record here.

Regarding `Cc1c(C(=O)/C=C/Nc2cccc(C(=O)O)c2)sc2nc3ccccc3n12`, the figures for the inhibition constant (Ki) at Carbonic anhydrase 1 and at Carbonic anhydrase 9 were more than 10000 nM and 14500 nM, respectively.
The compound `Cc1c(C(=O)/C=C/Nc2cccc(S(N)(=O)=O)c2)sc2nc3ccccc3n12` showed a Ki on Carbonic anhydrase 9 of 813 nM.
At Carbonic anhydrase 9, `Cc1c(C(=O)/C=C/Nc2ccccc2S(N)(=O)=O)sc2nc3ccccc3n12` returned an inhibition constant (Ki) of 498 nM.
The same measure, in the same setting: the value for `Cc1c(NC(=O)Nc2cccc(S(N)(=O)=O)c2)sc2nc3ccccc3n12` was 76.7 nM; that for `Cc1c(NC(=O)Nc2ccc(S(N)(=O)=O)cc2)sc2nc3ccccc3n12` was 63.3 nM.
Still for that read-out and setting: the value for `Cc1c(NC(=O)NCCc2ccc(S(N)(=O)=O)cc2)sc2nc3ccccc3n12` was 29.7 nM; that for `Cc1c(NC(=O)NNC(=O)c2ccc(S(N)(=O)=O)cc2)sc2nc3ccccc3n12` was 53.1 nM.
For `Cc1ccc(N/C=C/C(=O)c2sc3nc4ccccc4n3c2C)cc1S(N)(=O)=O`, the Activity in the assay on MCF7 [1] came to 3.71%; in the assay with MDA-MB-231 [2], 7.21%; with MDA-MB-231 [3], 11.22%; in the assay on MDA-MB-231 [5], 15.64%; with MDA-MB-231 [6] it was 26.47%; in the assay with MCF7 [8], 17.16%. Besides, the Activity in the assay with MCF7 [11] is listed as 34.36%; in the assay on MCF7 [12] it was 6.04%. Moreover, the IC50 in the assay on MCF7 [4] turned out to be 2360 nM; with MCF7 [7], 1510 nM; in the assay with MDA-MB-231 [9], 9370 nM; in the assay with MDA-MB-231 [10], 4810 nM. This compound yielded an inhibition constant (Ki) at Carbonic anhydrase 9 of 6.2 nM.
As for `Cc1c(C(=O)/C=C/NCc2ccc(S(N)(=O)=O)cc2)sc2nc3ccccc3n12`, on Carbonic anhydrase 9, the Ki stood at 55.9 nM.
On the same count and under the same terms, as for `Cc1c(C(=O)/C=C/Nc2ccc(S(N)(=O)=O)cc2)sc2nc3ccccc3n12`, the figure is 36.6 nM; as for `C/C(=N\Nc1ccc(S(N)(=O)=O)cc1)c1sc2nc3ccccc3n2c1C`, 73.1 nM.
As for `Cc1c(C(=O)/C=C/NNC(=O)c2ccc(S(N)(=O)=O)cc2)sc2nc3ccccc3n12`, the IC50 in the assay with MCF7 [4] amounted to 9380 nM; with MCF7 [7], 8070 nM; in the assay with MDA-MB-231 [9], 14200 nM; in the assay on MDA-MB-231 [10], 15200 nM. Moreover, on Carbonic anhydrase 9, the Ki came out at 9.7 nM.
For `Cc1c(NC(=O)Nc2ccccc2S(N)(=O)=O)sc2nc3ccccc3n12`, affinity on Carbonic anhydrase 9 was put at a Ki of 831 nM.
With `C/C(=N\NC(=O)c1ccc(S(N)(=O)=O)cc1)c1sc2nc3ccccc3n2c1C`, the IC50 turned out to be 29400 nM in the assay on MCF7 [4], 20400 nM with MCF7 [7], 9910 nM in the assay with MDA-MB-231 [9] and 6790 nM in the assay on MDA-MB-231 [10]. This compound yielded a Ki at Carbonic anhydrase 9 of 5.5 nM.
In turn, `Cc1c(C(=O)/C=C/Nc2cc(Cl)c(S(N)(=O)=O)cc2S(N)(=O)=O)sc2nc3ccccc3n12` registered a Ki at Carbonic anhydrase 9 of 30.8 nM.
The same measure, in the same setting: the value for `Cc1c(C(=O)/C=C/NCCc2ccc(S(N)(=O)=O)cc2)sc2nc3ccccc3n12` was 20.5 nM; that for `Cc1c(C(=O)/C=C/NNc2ccc(S(N)(=O)=O)cc2)sc2nc3ccccc3n12` was 12.3 nM; that for `Cc1c(C(=O)/C=C/Nc2ccc(C(=O)O)cc2)sc2nc3ccccc3n12` was 830 nM.
